Patent US20080050398A1, “Composition Comprising Beta-Defensin 2” (priority 2005, published 2008)
No end group written: not given here.

Experiments:
[1] = tested on: Staphylococcus epidermidis; assay: Inhibition of skin microorganisms by human β-defensin 2: CFU count, reduction factor vs control; assay type: cell-based; conditions: S. epidermidis; for inhibition of the microorganism (in words): useful skin microorganism; for logarithmic decrease in the cell number (RF): 35.7 μg/ml, compared with the control
Experimental: (§1) Staphylococcus epidermidis and bacillus lichenformis were grown in LB medium under aerobic conditions at 37° C. Propionibacterium acnes was grown in TBST medium under anaerobic conditions at 37° C. The concentration of human β-defensin 2 was 35.7 μg/ml. Procedure: 18-hour cultures (S. epidermidis and B. lichenformis) or 5-day cultures (P. acnes) in LB or TBST liquid media; Measurement of the cultures at A620 nm; Adjustment in PBS [phosphate-buffered saline] to the proper A620 nm for 10^6 CFU/ml of the test strain; Microbial content checked with a dilution series in MTP brief procedure and plating; Make up stock solution of the ingredient AWK in PBS; Put 10 μl aliquots of the test strain suspension in the PCR tubes provided for AWK and control; Add to each 10 μl aliquots of AWK or PBS; Incubate aerobically at 37° C.; Determine the microbial content of the suspensions after 8 and 24 hours, with a dilution series in the MTP brief procedure and plating; Incubation of the agar plates under proper conditions for the strain; Evaluation, by visual check of the cultured agar plates, 8 or 24 hours after the start of the test; determination of the CFU and calculation of the reduction factors.

bacillus lichenformis = assay: as above; assay type: cell-based; conditions: B. lichenformis; for inhibition of the microorganism (in words): useful skin microorganism; for logarithmic decrease in the cell number (RF): 35.7 μg/ml, compared with the control
Experimental: as §1

Propionibacterium acnes = assay: as above; assay type: cell-based; conditions: P. acnes; for inhibition of the microorganism (in words): harmful organism; for logarithmic decrease in the cell number (RF): 35.7 μg/ml, compared with the control
Experimental: as §1

corolase = assay: Compatibility of surfactants with enzymes: remaining enzyme activity; assay type: biochemical; conditions: 1% SDS, within 15 minutes
Experimental: (§2) In selection of suitable surfactants, one must make sure that they are compatible with the enzymes used. It is preferable that the enzyme activity not decrease more than 50%, particularly not more than 30%, during a typical average working time of 15 minutes. Thus, tests have shown that sodium dodecyl sulfate (SDS), which is known to be a denaturant, reduces the activity of corolase to less than 30% within 15 minutes, even at a concentration of 1%, while the activity of xylanase decreases to less than 40% with only 0.1% SDS, so that surfactant is not preferred for use in the cleaning agents according to the invention. If that surfactant, or one with similar action, must nevertheless be used, one should preferably make sure of spatial separation during storage, such as by encapsulating the enzyme or by use of a multichamber bottle so that the enzyme and surfactant come into contact with each other only immediately before or during use. Alkyl polyglycosides, on the other hand, are well suited for use in enzyme-containing agents according to this invention. For instance, the activity of corolase remains clearly over 50% even with 3% APG 600, while xylanase actually experiences an increase in activity from the use of APG 600 (more than 150% activity with 0.1% surfactant) and still has more than 80% activity with 3% APG.

xylanase = assay: as above; assay type: biochemical; conditions: 0.1% SDS
Experimental: as §2

| Molecule | inhibition of the microorganism (in words) ([1]; listed as human β-defensin 2) | inhibition of the microorganism (in words) ([1]; listed as β-defensin 2) | logarithmic decrease in the cell number (RF) ([1]; exposure time 8 hr) | logarithmic decrease in the cell number (RF) ([1]; exposure time 24 hr) | inhibition of the microorganism (in words) (bacillus lichenformis; listed as human β-defensin 2) | inhibition of the microorganism (in words) (bacillus lichenformis; listed as β-defensin 2) | logarithmic decrease in the cell number (RF) (bacillus lichenformis; exposure time 8 hr) | logarithmic decrease in the cell number (RF) (bacillus lichenformis; exposure time 24 hr) | inhibition of the microorganism (in words) (Propionibacterium acnes; listed as human β-defensin 2) | inhibition of the microorganism (in words) (Propionibacterium acnes; listed as β-defensin 2) | logarithmic decrease in the cell number (RF) (Propionibacterium acnes; exposure time 8 hr) | logarithmic decrease in the cell number (RF) (Propionibacterium acnes; exposure time 24 hr) | activity of corolase (corolase) | activity of xylanase (xylanase) |
| --- | --- | --- | --- | --- | --- | --- | --- | --- | --- | --- | --- | --- | --- | --- |
| human β-defensin 2 (GIGDPVTCLKSGAICHPVFCPRRYKQIGGCGLPGTKCCKKP; ends and bridges not checked; cysteine pairing not given here) [used as hBD2 (Sigma) in the formulations] | only slight inhibition | only a slight inhibitory effect | 0.1963 | 0.09922 | only slight inhibition | only a slight inhibitory effect | 0.09275 | 0.3716 | good inhibition | distinctly more strongly inhibited | 0.9586 | 1.833 |  |  |
| CCCCCCCCCCCCOS(=O)(=O)[O-].[Na+] [SDS, sodium dodecyl sulfate] |  |  |  |  |  |  |  |  |  |  |  |  | less than 30% | less than 40% |
